Assay results: patent publication US20240393292A1, “ALLERGY ANTIGEN AND EPITOPE THEREOF” (HOYU CO., LTD., priority 2019, published 2024)
Values belong to the substance of their own block, whether it stands above or below them.

System: IgE antibodies from patients
Test: Wheat epitope mapping (2): overlapping 10-amino-acid peptide fragments shifted by one amino acid;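 as to Rank of partial sequence as epitope binding to IgE antibody: key = sequence deemed particularly important within the common 15-residue sequence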;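 as to epitope sequence binding to IgE antibody, rank (Key/Preferably/More preferably): key of grades: preferably = shorter partial sequence still acting as epitope; more preferably = sequence improving IgE binding; key = particularly important sequence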
Type: binding, human
Description: The peptides to be synthesized were shifted by one amino acid.
The library was prepared by the same procedure as described above in (A), and the presence or absence of binding of an IgE antibody present in the serum of a patient to each peptide fragment was measured by the same technique as described above. Numeric values determined from images obtained as a result of carrying out only the procedures (1) and (4) to (6) described above in the subsection titled (3) Spotting of cellulose-bound peptide solution were used as control values. The control value of each peptide was subtracted from numeric values determined from images obtained from results about the serum of patients, and the obtained value of the difference was compared with values of the peptides serving as the basis of overlapping.
Chemiluminescence intensity in images obtained by measurement was converted into a numeric value in the same manner as in (A). Numeric values determined from images obtained as a result of carrying out only the procedures (1) and (4) to (6) described above in the subsection titled (3) Spotting of cellulose-bound peptide solution (secondary antibody measurement values) were used as control values. The control value of each peptide was subtracted from numeric values determined from images obtained from results about the serum of patients. When values obtained using the sequences (SEQ ID NOs: 29, 131, 191, 281, 346, 414, 493, 562, 640, 706, 776, 899, 974, 1010, 1089, 1142, 1166, 1209, 1257, 1297, 1367, 1403, 1508, 1566, 1598, 1608, 1685, 1753, 1789, 1836, 1895, 1977, 2004, 2027, 2068, 2154, 2217, 2265, 2309, 2342, 2419, 2491, 2545, 2613, 2631, 2674, 2701, 2774, 2809 and 2830) serving as the basis of overlapping were defined as 100%, it was determined that: a peptide having a value of the difference that was less than 30% had no binding activity against IgE antibodies; a peptide having a value of the difference that was 30% or more and less than 50% had binding activity, albeit poor, against IgE antibodies; a peptide having a value of the difference that was 50% or more and less than 70% had binding activity, albeit somewhat poor, against IgE antibodies; and a peptide having a value of the difference that was 70% or more had equivalent or good binding activity against IgE antibodies and was thus a peptide had remaining binding activity against IgE antibodies.

[1] = serum of patient P3 (WDEIA), sequence without X
[2] = serum of patient P8 (WDEIA), sequence without X
[3] = serum of patient P36 (WDEIA), sequence without X
[4] = serum of patient P24 (WDEIA), sequence without X
[5] = serum of patient P34 (WDEIA), sequence without X

Substance: 1875 (TVRTLQRTV; REGION 1..9: note = epitope) [compound 1875]
- epitope sequence binding to IgE antibody, rank (Key/Preferably/More preferably) (serum of patient P31 (WDEIA)): More preferably

Substance: 1582 (FPQTQQPQ; REGION 1..8: note = epitope) [compound 1582]
- Rank of partial sequence as epitope binding to IgE antibody (serum of patient P20 (WDEIA), sequence without X): Preferably

Substance: 1393 (QPLPPQQQ; REGION 1..8: note = epitope) [compound 1393]
- Epitope sequence binding to IgE antibody, rank of the sequence (serum of patient P21 (WDEIA), sequence without X): Preferably

Substance: 1168 (PGQQQQFPPQ; REGION 1..10: note = epitope) [compound 1168]
- Epitope sequence binding to IgE antibody, rank of the sequence [1]: Preferably

Substance: 1176 (QQFPPQQ; REGION 1..7: note = epitope) [compound 1176]
- Epitope sequence binding to IgE antibody, rank of the sequence [2]: Preferably

Substance: 1763 (LKKVGYN; REGION 1..7: note = epitope) [compound 1763]
- epitope sequence binding to IgE antibody, rank (Key/Preferably/More preferably) (serum of patient P27 (WDEIA)): Key

Substance: 1390 (PWQQQ; REGION 1..5: note = epitope) [compound 1390]
- Epitope sequence binding to IgE antibody, rank of the sequence (serum of patient P15 (WDEIA), sequence without X): Key

Substance: 1648 (FVPISG; REGION 1..6: note = epitope) [compound 1648]
- Rank of partial sequence as epitope binding to IgE antibody [3]: Key

Substance: 1336 (NVEN; REGION 1..4: note = epitope) [compound 1336]
- Epitope sequence binding to IgE antibody, rank of the sequence (serum of patient P26 (WDEIA), sequence without X): Key

Substance: 1929 (QFPGQQQ; REGION 1..7: note = epitope) [compound 1929]
- epitope sequence binding to IgE antibody, rank (Key/Preferably/More preferably) (serum of patient P15 (WDEIA)): Preferably

Substance: 1419 (YLQPQQPIS; REGION 1..9: note = epitope) [compound 1419]
- Epitope sequence binding to IgE antibody, rank of the sequence (serum of patient P9 (WDEIA), sequence without X): Key

Substance: 1840 (RTLQ; REGION 1..4: note = epitope) [compound 1840]
- epitope sequence binding to IgE antibody, rank (Key/Preferably/More preferably) (serum of patient P5 (WDEIA)): Key

Substance: 1460 (LQPQQPISQ; REGION 1..9: note = epitope) [compound 1460]
- Rank of partial sequence as epitope binding to IgE antibody [4]: More preferably

Substance: 1657 (VPFVPISG; REGION 1..8: note = epitope) [compound 1657]
- Rank of partial sequence as epitope binding to IgE antibody (serum of patient P53 (child, general immediate type allergy to wheat), sequence without X): Key

Substance: 1854 (RTLQR; REGION 1..5: note = epitope) [compound 1854]
- epitope sequence binding to IgE antibody, rank (Key/Preferably/More preferably) (serum of patient P17 (WDEIA)): Key

Substance: 1524 (QVPLVQQQQ; REGION 1..9: note = epitope) [compound 1524]
- Rank of partial sequence as epitope binding to IgE antibody (serum of patient P10 (WDEIA), sequence without X): More preferably

Substance: 1928 (VPLVQQQ; REGION 1..7: note = epitope) [compound 1928]
- epitope sequence binding to IgE antibody, rank (Key/Preferably/More preferably) (serum of patient P15 (WDEIA)): Key

Substance: 1759 (YLKK; REGION 1..4: note = epitope) [compound 1759]
- epitope sequence binding to IgE antibody, rank (Key/Preferably/More preferably) (serum of patient P17 (WDEIA)): Key

Substance: 1556 (LVQQQ; REGION 1..5: note = epitope) [compound 1556]
- Rank of partial sequence as epitope binding to IgE antibody (serum of patient P35 (WDEIA), sequence without X): Key

Substance: 1459 (YLQPQQPISQ; REGION 1..10: note = epitope) [compound 1459]
- Rank of partial sequence as epitope binding to IgE antibody [4]: Further preferably

Substance: 1229 (PIQQQP; REGION 1..6: note = epitope) [compound 1229]
- Epitope sequence binding to IgE antibody, rank of the sequence (serum of patient P13 (WDEIA), sequence without X): Preferably

Substance: 1443 (SQQQA; REGION 1..5: note = epitope) [compound 1443]
- Rank of partial sequence as epitope binding to IgE antibody (serum of patient P18 (WDEIA), sequence without X): Key

Substance: 1640 (DKVPFVPISG; REGION 1..10: note = epitope) [compound 1640]
- Rank of partial sequence as epitope binding to IgE antibody [5]: Key

Substance: 1839 (TVRTLQR; REGION 1..7: note = epitope) [compound 1839]
- epitope sequence binding to IgE antibody, rank (Key/Preferably/More preferably) (serum of patient P5 (WDEIA)): Preferably

Substance: 1666 (YNPDKVP; REGION 1..7: note = epitope) [compound 1666]
- Rank of partial sequence as epitope binding to IgE antibody (serum of patient G3 (adult, general immediate type allergy to wheat), sequence without X): Preferably

Substance: 1611 (YNPD; REGION 1..4: note = epitope) [compound 1611]
- Rank of partial sequence as epitope binding to IgE antibody [2]: Key

Substance: 1601 (AQLEAIRSL; REGION 1..9: note = epitope) [compound 1601]
- Rank of partial sequence as epitope binding to IgE antibody [1]: Preferably

Next, values leading:

- Epitope sequence binding to IgE antibody, rank of the sequence (Key/Preferably/More preferably) (serum of patient P25 (WDEIA), sequence without X): Key
Substance: 2315 (IIYS; REGION 1..4: note = epitope) [compound 2315]

- Epitope sequence binding to IgE antibody, rank of the sequence (Key/Preferably/More preferably) (serum of patient P52 (child, general immediate type allergy to wheat), sequence without X): Preferably
Substance: 2411 (TEIVL; REGION 1..5: note = epitope) [compound 2411]

- Epitope sequence binding to IgE antibody, rank of the sequence (serum of patient P54 (child, general immediate type allergy to wheat), partial sequence): Key
Substance: 2603 (QLVQQLC; REGION 1..7: note = epitope) [compound 2603]

- Epitope sequence binding to IgE antibody, rank of the sequence (serum of patient G7 (adult, general immediate type allergy to wheat), partial sequence): Preferably
Substance: 2541 (SSQVSFQPSQ; REGION 1..10: note = epitope) [compound 2541]

- Epitope sequence binding to IgE antibody, rank of the sequence (serum of patient P36 (WDEIA), partial sequence): Key
Substance: 2595 (VQQL; REGION 1..4: note = epitope) [compound 2595]

- epitope sequence binding to IgE antibody, rank (Key/Preferably/More preferably) (serum of patient P26 (WDEIA)): Preferably
Substance: 1954 (QQFPGQQ; REGION 1..7: note = epitope) [compound 1954]

- Epitope sequence binding to IgE antibody, rank of the sequence (serum of patient P33 (WDEIA), partial sequence): Key
Substance: 2743 (YKIGGIGTV; REGION 1..9: note = epitope) [compound 2743]

- Epitope sequence binding to IgE antibody, rank of the sequence (Key/Preferably/More preferably) [5]: Preferably
Substance: 2393 (PHDIDRCAYV; REGION 1..10: note = epitope) [compound 2393]

- Epitope sequence binding to IgE antibody, rank of the sequence (Key/Preferably/More preferably/Further preferably) (serum of patient P50 (child, general immediate type allergy to wheat), sequence without X): Further preferably
Substance: 2460 (LKAWSGK; REGION 1..7: note = epitope) [compound 2460]

- Epitope sequence binding to IgE antibody, rank of the sequence (serum of patient P22 (WDEIA), partial sequence): Key
Substance: 2560 (LQQSTYQLVQ; REGION 1..10: note = epitope) [compound 2560]

- Epitope sequence binding to IgE antibody, rank of the sequence (serum of patient G9 (adult, general immediate type allergy to wheat), partial sequence): Key
Substance: 2611 (QSTYQLVQQL; REGION 1..10: note = epitope) [compound 2611]

- Epitope sequence binding to IgE antibody, rank of the sequence (serum of patient P18 (WDEIA), partial sequence): Key
Substance: 2717 (YKIGG; REGION 1..5: note = epitope) [compound 2717]

- epitope sequence binding to IgE antibody, rank (Key/Preferably/More preferably) (serum of patient P21 (WDEIA)): Key
Substance: 1943 (QFPGQQ; REGION 1..6: note = epitope) [compound 1943]

- Epitope sequence binding to IgE antibody, rank of the sequence (serum of patient P31 (WDEIA), partial sequence): Preferably
Substance: 2739 (YKIGGIG; REGION 1..7: note = epitope) [compound 2739]

- Epitope sequence binding to IgE antibody, rank of the sequence (serum of patient P20 (WDEIA), partial sequence): Key
Substance: 2507 (SQVSF; REGION 1..5: note = epitope) [compound 2507]

- Epitope sequence binding to IgE antibody, rank of the sequence (serum of patient P35 (WDEIA), partial sequence): Key
Substance: 2660 (EMNKRSF; REGION 1..7: note = epitope) [compound 2660]

- Epitope sequence binding to IgE antibody, rank of the sequence (Key/Preferably/More preferably) (serum of patient P12 (WDEIA), sequence without X): More preferably
Substance: 2350 (YVTEIVL; REGION 1..7: note = epitope) [compound 2350]

- Epitope sequence binding to IgE antibody, rank of the sequence (serum of patient P28 (WDEIA), partial sequence): Key
Substance: 2575 (QLVQ; REGION 1..4: note = epitope) [compound 2575]

- Epitope sequence binding to IgE antibody, rank of the sequence (Key/Preferably/More preferably) [3]: Key
Substance: 2402 (TEIV; REGION 1..4: note = epitope) [compound 2402]

- Epitope sequence binding to IgE antibody, rank of the sequence (serum of patient P29 (WDEIA), partial sequence): Preferably
Substance: 2733 (YKIGGI; REGION 1..6: note = epitope) [compound 2733]

- Epitope sequence binding to IgE antibody, rank of the sequence (serum of patient P26 (WDEIA), partial sequence): Key
Substance: 2723 (KIGG; REGION 1..4: note = epitope) [compound 2723]

- Epitope sequence binding to IgE antibody, rank of the sequence (serum of patient P17 (WDEIA), partial sequence): Preferably
Substance: 2712 (YKIGG; REGION 1..5: note = epitope) [compound 2712]
